This note sets out measurements from patent US20260217708A1, “FUSED BENZAZEPINE DERIVATIVES FOR USE IN THE TREATMENT OF CANCER AND EPILEPSY” (UCB BIOPHARMA SRL, priority 2023, published 2026).

For test [1], the target named is T1, system Xc^− (Homo sapiens, UniProt Q9UPY5).
T1 sequence (Q9UPY5 1-501): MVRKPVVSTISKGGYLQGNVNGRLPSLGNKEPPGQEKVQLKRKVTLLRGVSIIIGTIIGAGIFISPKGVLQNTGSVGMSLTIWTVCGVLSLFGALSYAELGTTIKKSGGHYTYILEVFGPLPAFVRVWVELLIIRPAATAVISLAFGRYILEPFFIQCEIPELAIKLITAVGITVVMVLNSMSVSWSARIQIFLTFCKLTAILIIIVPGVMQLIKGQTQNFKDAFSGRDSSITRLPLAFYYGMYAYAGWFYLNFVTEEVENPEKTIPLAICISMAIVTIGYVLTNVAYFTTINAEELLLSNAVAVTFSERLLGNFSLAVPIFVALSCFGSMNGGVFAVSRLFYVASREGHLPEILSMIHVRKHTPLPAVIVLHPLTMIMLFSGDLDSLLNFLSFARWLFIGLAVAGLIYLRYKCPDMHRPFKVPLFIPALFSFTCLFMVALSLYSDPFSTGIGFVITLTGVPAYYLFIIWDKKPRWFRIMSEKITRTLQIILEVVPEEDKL
T1 sequence (P08195 1-529 partner): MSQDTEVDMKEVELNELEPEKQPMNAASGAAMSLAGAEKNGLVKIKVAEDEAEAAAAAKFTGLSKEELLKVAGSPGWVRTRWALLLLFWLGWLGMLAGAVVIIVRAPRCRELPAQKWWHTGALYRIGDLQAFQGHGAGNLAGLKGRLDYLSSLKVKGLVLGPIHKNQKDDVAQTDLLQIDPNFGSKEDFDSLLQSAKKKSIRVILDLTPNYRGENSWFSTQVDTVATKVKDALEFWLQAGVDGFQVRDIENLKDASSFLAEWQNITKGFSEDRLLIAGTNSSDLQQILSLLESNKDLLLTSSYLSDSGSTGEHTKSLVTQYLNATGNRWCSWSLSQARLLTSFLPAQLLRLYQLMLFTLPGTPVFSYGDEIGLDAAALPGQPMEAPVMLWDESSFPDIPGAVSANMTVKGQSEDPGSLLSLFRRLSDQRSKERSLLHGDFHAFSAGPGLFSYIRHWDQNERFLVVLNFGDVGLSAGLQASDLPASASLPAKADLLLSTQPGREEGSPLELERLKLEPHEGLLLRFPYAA
The test is described as follows: [^14C]L-Cystine uptake assay. The format is cell-based. The arrangement: endogenous in cells; host or cells: H4 cells. The note with it: H4 cells, sodium-free HEPES buffer, 0.5 μM L-[14C]Cystine and 4.5 μM L-Cystine, 1 hour at 37° C.; read-out: pIC50 [^14C] L-Cystine uptake assay (converted). The text has this: (§1) The effect of compounds of Formula (I) on the system Xc^− functionality was examined in two independent cell assays: (i) measurement of cystine-induced glutamate release; and (ii) measurement of [^14C]L-Cystine uptake.
(§2) As described above, System Xc^−, also known as the cystine/glutamate antiporter, is an amino acid transporter that mediates the extrusion of intracellular L-glutamate outside the cell and the uptake of extracellular L-cystine into the cell.
(§3) By measuring respectively, the concentration of glutamate released outside the cell and the L-cystine uptaken in the cell, with increasing concentrations of compounds of formula (I) according to the present invention, the efficacy of said compounds to inhibit the System Xc^− function can be evaluated.
(§4) The efficacy of the compounds to inhibit system Xc^− is represented by measuring the IC50 which corresponds to the concentration of compound necessary to inhibit 50% of the signals from the two control groups; DMSO 1% and Erastin 50 μM in the respective assays. pIC50 values correspond to −log of the IC50 in Molar.
In this assay, the medium is devoid of sodium to prevent the transport of glutamate by sodium-dependent excitatory amino acid transporters (EAATs). H4 cells were plated on a 96-well CytoStar-T scintillating microplate (PerkinElmer) at 5×10^4 cells/well in the medium described above. After 1 day, cells were washed one time with the sodium-free HEPES buffer and preincubated with test compounds of Formula (I) (1% final DMSO) for 15 min. Uptake was initiated by adding 0.5 μM L-[1,2, 1′,2′-^14C]Cystine (0.02 mCi/mL, PerkinElmer, Waltham, US) and 4.5 μM L-Cystine (Sigma-Aldrich). After 1 hour at 37° C., plates were counted in a MicroBeta^2 microplate counter (PerkinElmer).

Test [2] concerns the target T1, system Xc^−. Description: Cystine-induced glutamate release assay. The format is cell-based. The arrangement: endogenous in cells; host or cells: H4 cells. The note with it: H4 cells, sodium-free HEPES buffer, 50 μM L-Cystine, 2 hours, Amplex Red glutamate readout; read-out: pIC50 Cystine-induced glutamate release assay (converted).
Description: as §1, §2, §3, §4
Measurement of cystine-induced glutamate release indicates levels of glutamate (outside of the cell) that are dependent on system Xc^− antiporter function. Upon the addition of L-Cystine to H4 cells, intracellular glutamate is counter-transported and exported in the supernatant.
In this assay, the medium is devoid of sodium to prevent the transport of glutamate by sodium-dependent excitatory amino acid transporters (EAATs). H4 cells were plated on 384-well culture plate at 1×10^4 cells/well in Dulbecco's Modified Eagle Medium (DMEM) with L-glutamine, penicillin/streptomycin and 10% fetal bovine serum (all from ThermoFisher Scientific) and incubated in a humidified CO2 incubator at 37° C. After 2 days, cells were washed 4 times with prewarmed sodium-free HEPES buffer (contents in mM: HEPES 10, KCl 5.4, CaCl2 2.5, MgCl2 1, KH2PO4 0.4, D-Glucose 5, Choline chloride 140), pH 7.4. Glutamate release was induced by addition of 50 μM of L-Cystine (Sigma-Aldrich), together with a test compound of Formula (I) at 1% final DMSO concentration. After 2 hours of incubation in the culture incubator, supernatants were transferred to a low-binding polypropylene 384-well plate to determine L-glutamate concentration using Amplex™ Red Glutamic Acid Assay Kit (ThermoFisher Scientific). Briefly, 10 μL of Amplex™ Red working solution was added to 10 μL of the supernatant, then the mixture was incubated for 30 min at 37° C. Fluorescence intensity was measured by EnVision microplate reader (PerkinElmer).

As for `CCn1c(C)cc2c(c1=O)-c1cccnc1CC(=O)N2CC(=O)Nc1ccc(C(F)(F)F)cc1` [#125, 2-(4-ethyl-5-methyl-3,9-dioxo-4,8,12-triazatricyclo[9.4.0.0^2,7]pentadeca-1(15),2(7),5,11,13-pentaen-8-yl)-N-[4-(trifluoromethyl)phenyl]acetamide], the IC50 in test [1] and in test [2] was 39.8 to 100 nM in each case.
On to `Cc1cc2c(cn1)-c1cccnc1C(C)C(=O)N2CC(=O)Nc1ccc(C(F)(F)F)cc1` (stereo not shown) [#91, 2-(5,10-dimethyl-9-oxo-4,8,12-triazatricyclo[9.4.0.0^2,7]pentadeca-1(11),2(7),3,5,12,14-hexaen-8-yl)-N-[4-(trifluoromethyl)phenyl]acetamide], for which the IC50 in test [1] was 15.8 to 39.8 nM; in test [2], 39.8 to 100 nM.
In the same order, the values of `Cc1cc2c(c(F)n1)-c1cccnc1C(C)C(=O)N2CC(=O)Nc1ccc2c(cnn2C)c1` (stereo not shown) [#129, 2-(3-fluoro-5,10-dimethyl-9-oxo-4,8,12-triazatricyclo[9.4.0.0^2,7]pentadeca-1(11),2(7),3,5,12,14-hexaen-8-yl)-N-(1-methylindazol-5-yl)acetamide] are 39.8 to 100 nM and 39.8 to 100 nM.
In the same order, the values of `Cc1cc2c(cn1)-c1cc(F)cnc1C(C)C(=O)N2CC(=O)Nc1ccc(Cl)c(F)c1` (single isomer, unassigned) [#327, N-(4-chloro-3-fluoro-phenyl)-2-[14-fluoro-5,10-dimethyl-9-oxo-4,8,12-triazatricyclo[9.4.0.0^2,7]pentadeca-1(15),2,4,6,11,13-hexaen-8-yl]acetamide] are less than 15.8 nM and less than 15.8 nM.
The matching figures for `Cc1cc2c(c(F)n1)-c1cccnc1C(C)C(=O)N2CC(=O)Nc1ccc(OC(F)F)c(F)c1` (stereo not shown) [#136, N-[4-(difluoromethoxy)-3-fluoro-phenyl]-2-(3-fluoro-5,10-dimethyl-9-oxo-4,8,12-triazatricyclo[9.4.0.0^2,7]pentadeca-1(11),2(7),3,5,12,14-hexaen-8-yl)acetamide]: 15.8 to 39.8 nM and 100 to 501 nM.
`Cc1cc2c(cn1)-c1cccnc1C(C)C(=O)N2CC(=O)Nc1ccc(C(F)F)c(F)c1` (single isomer, unassigned) [#252, N-[4-(difluoromethyl)-3-fluoro-phenyl]-2-[5,10-dimethyl-9-oxo-4,8,12-triazatricyclo[9.4.0.0^2,7]pentadeca-1(15),2,4,6,11,13-hexaen-8-yl]acetamide]: the IC50 is 15.8 to 39.8 nM in test [1] and less than 15.8 nM in test [2].
Take `Cc1ccc(NC(=O)CN2C(=O)C(C)c3ccccc3-c3c2cc(C)c(=O)n3C)cc1F` (stereo not shown) [#120, N-(3-fluoro-4-methyl-phenyl)-2-(1,3,7-trimethyl-2,6-dioxo-7H-pyrido[3,2-d][3]benzazepin-5-yl)acetamide]: the results for the IC50 in test [1] and in test [2] were less than 15.8 nM and 15.8 to 39.8 nM, respectively.
As to `CC1C(=O)N(CC(=O)Nc2ccc(Cl)c(F)c2)c2cc(N3CC(F)(F)C3)nc(F)c2-c2cccnc21` (single isomer, unassigned) [#268, N-(4-chloro-3-fluoro-phenyl)-2-[5-(3,3-difluoroazetidin-1-yl)-3-fluoro-10-methyl-9-oxo-4,8,12-triazatricyclo[9.4.0.0^2,7]pentadeca-1(15),2,4,6,11,13-hexaen-8-yl]acetamide], the IC50 in test [1] and in test [2] was less than 15.8 nM each time.
With `Cc1c2c(cn(C)c1=O)N(CC(=O)Nc1ccc(C(F)F)cc1)C(=O)C(C)c1ccccc1-2` (single isomer, unassigned) [#368, N-[4-(difluoromethyl)phenyl]-2-[1,3,7-trimethyl-2,6-dioxo-7H-pyrido[4,3-a][3]benzazepin-5-yl]acetamide], the IC50 in test [1] and in test [2] was less than 15.8 nM throughout.
In the case of `COc1cc2c(c(F)n1)-c1cc(F)cnc1C(C)C(=O)N2CC(=O)Nc1ccc(Cl)c(F)c1` (single isomer, unassigned) [#403, N-(4-chloro-3-fluoro-phenyl)-2-[3,14-difluoro-5-methoxy-10-methyl-9-oxo-4,8,12-triazatricyclo[9.4.0.0^2,7]pentadeca-1(11),2(7),3,5,12,14-hexaen-8-yl]acetamide], the IC50 in test [1] and in test [2] was less than 15.8 nM throughout.
In the case of `Cc1cc2c(c(F)n1)-c1cccnc1[C@@H](C)C(=O)N2CC(=O)Nc1ccc(C2(F)CC2)cc1` [#246, N-[4-(1-fluorocyclopropyl)phenyl]-2-[(10R)-3-fluoro-5,10-dimethyl-9-oxo-4,8,12-triazatricyclo[9.4.0.0^2,7]pentadeca-1(11),2(7),3,5,12,14-hexaen-8-yl]acetamide], the IC50 in test [1] and in test [2] was less than 15.8 nM each time.
For the compound `Cc1cc2c(c(F)n1)-c1cccnc1[C@@H](F)C(=O)N2CC(=O)Nc1ccc(C(F)(F)F)cc1` (single isomer, unassigned) [#195, Enantiomer (10R) or (10S) of 2-(3,10-difluoro-5-methyl-9-oxo-4,8,12-triazatricyclo[9.4.0.0^2,7]pentadeca-1(11),2(7),3,5,12,14-hexaen-8-yl)-N-[4-(trifluoromethyl)phenyl]acetamide], the IC50 in test [1] and in test [2] was less than 15.8 nM each time.
Turning to `COc1nccc2c1-c1cccnc1C(C)C(=O)N2CC(=O)Nc1ccc(Cl)c(F)c1` (single isomer, unassigned) [#297, N-(4-chloro-3-fluoro-phenyl)-2-[3-methoxy-10-methyl-9-oxo-4,8,12-triazatricyclo[9.4.0.0^2,7]pentadeca-1(15),2(7),3,5,11,13-hexaen-8-yl]acetamide], the IC50 in test [1] and in test [2] was less than 15.8 nM in each case.
Regarding `CC1C(=O)N(CC(=O)Nc2ccc(Cl)c(F)c2)c2cc(CO)c(=O)n(C)c2-c2ccccc21` (stereo not shown) [#363, N-(4-chloro-3-fluoro-phenyl)-2-[3-(hydroxymethyl)-1,7-dimethyl-2,6-dioxo-7H-pyrido[3,2-d][3]benzazepin-5-yl]acetamide], the IC50 in test [1] is 39.8 to 100 nM; in test [2], 15.8 to 39.8 nM.
